Test system: complément
Test: Anti-complement activity: inhibition of complement in fresh serum (technique of Chevance & Etievant / Rapp & Borsos)
Assay type: biochemical
Settings: fresh serum diluted 1/40, 37°C, 45 minutes
Text: L'activité anti-complément des substances visées par l'invention peut être mise en évidence suivant la technique décrite dans l'article de L-G-CHEVANCE et M. ETIEVANT "Etude d'un peptide (sel de magnésium de l' acide N-Acétyl (α-β)- Aspartyl-glutamique) mise en évidence de la protection contre les destructions cellulaires locales provoquées par l'activation in situ du complément" (J. Pharmacol. Paris 1986 n° 4, 676-685), ainsi que dans la parution de J. RAPP et T. BORSOS "Molecular basis of complement action" Appleton Century Crofts publ. 1970.
Après titrage du complément, on incube à 37°C pendant 45 minutes des prélèvements aliquots de 40 µl de sérum frais dilué au 1/40e, mélangés chacun respectivement à 40 µl de solutions aqueuses de concentrations croissantes de chaque substance analysée : acide L-glutamique, glutamate de sodium, gomme arabique et d'un mélange, à concentrations égales de gomme arabique et de glutamate de sodium.

SMILES	% inhibition (Concentration 0,5 %)	% inhibition (Concentration 0,25 %)	% inhibition (Concentration 1 %)	% inhibition (Concentration 0,062 %)	% inhibition (Concentration 0,125 %)	% inhibition (Concentration 0,05 %)	% inhibition (Concentration 1,5 %)	% inhibition (Concentration 2 %)
N[C@@H](CCC(=O)O)C(=O)O [Glutamate de sodium, L-glutamate de sodium]	0,175%	0,112%	0,216%	0,101%	0,116%			
N[C@@H](CCC(=O)O)C(=O)O [Acide glutamique, acide L-glutamique]	0,092%	0,000%	0,077%			0,033%	0,369%	0,661%
